Measured values as given in patent US20140309295A1, “ANTIEPILEPTIC, HYPOCHOLESTEROLEMIC AND NEUROPROTECTIVE COMPOUND” (NEURON BIOPHARMA, S.A., priority 2009, published 2014).

How the values were obtained:
HMGR enzyme = biological target: T1, HMGR enzyme (Homo sapiens, UniProt P04035); test: Inhibition of HMGR enzyme activity (NADPH absorbance 340 nm); format: biochemical; details: acid form, 37° C.
T1 sequence (P04035 426-888 limits assumed): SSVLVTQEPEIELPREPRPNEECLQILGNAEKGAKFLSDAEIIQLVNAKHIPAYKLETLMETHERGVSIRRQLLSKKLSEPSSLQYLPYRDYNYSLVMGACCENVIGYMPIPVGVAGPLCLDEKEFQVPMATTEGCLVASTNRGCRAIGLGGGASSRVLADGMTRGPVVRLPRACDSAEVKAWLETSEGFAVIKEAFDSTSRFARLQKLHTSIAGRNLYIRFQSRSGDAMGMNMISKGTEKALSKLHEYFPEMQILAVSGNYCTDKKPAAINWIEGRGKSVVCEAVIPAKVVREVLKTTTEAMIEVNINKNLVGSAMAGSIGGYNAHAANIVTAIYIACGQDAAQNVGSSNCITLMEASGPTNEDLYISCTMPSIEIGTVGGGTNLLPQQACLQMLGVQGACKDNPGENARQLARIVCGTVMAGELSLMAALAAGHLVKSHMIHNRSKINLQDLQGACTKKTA
Description: Due to the nature of the compound, the degree of inhibition of the HMGR enzyme by compound NST0037 was determined since this enzyme is key in cellular cholesterol synthesis and in the physiological regulation of said synthesis. […] For the reaction, HMGR uses NADPH as a reducing agent and 3-hydroxy-3-methylglutaryl coenzyme A (HMGCoA) as a substrate, producing mevalonic acid, CoASH and NADP+. The reduction of the absorbance at which NADPH (340 nm) is absorbed is a direct measurement of the catalytic activity of HMGR and serves to calculate the inhibition percentages of different compounds. In order to take the HMGR inhibition, the assay was performed on a 96-well plate, with a total reaction volume of 200 μl. The reaction buffer (50 mM KH2PO4, 1 M KCl, 2 mg/ml Bovine Serum Albumin [BSA] and 5 mM DTT, at pH=7.3) was prepared at the time the reaction was conducted and was maintained at 37° C. […] The acid form of the compounds is used in all the cases.
The reduction of absorbance at 340 nm allows calculating the percentage of HMGR enzyme activity with respect to the control. The IC50 were determined by means of the Trimmed Spearman-Karber method (Version 1.5).

adult zebrafish = test: Single-dose toxicity assay (24 hours exposure in water) in adult zebrafish; details: 14 days post-treatment
Description: Subsequently they were fed like the rest of the animals. • Weight of the animals: they were weighed at time 0 (before the treatment), at 7 and at 14 days post-treatment.
In this case, the weight of the animals of the different study groups at three established times: before starting the treatments (0 dpt), at day 7 post-treatment and at day 14 post-treatment, was used as a toxicity parameter. […] To that end, the fish were sacrificed at 14 days post-treatment (previously anesthetized) and the samples (whole fish) were included in paraffin. The hematoxylin-eosin staining was subsequently performed in order to conduct the histopathological studies, obtaining a minimum of 6 longitudinal sections per animal, for the purpose of collecting different study areas of the same organ. The following organs were studied: brain, kidney, pancreas, intestine, eye, gills, ovary, testicle, muscle and liver.

[1] = system: CD1 mice inoculated with MPTP (subchronic); test: Subchronic MPTP model of Parkinson's disease in mice; format: in vivo
Description: All the animals included for the experimental process were 12-week old males of the CD1 strain. The experiments were conducted strictly following the Guidance on the Operation of Animals (Scientific Procedures, Act. 1986). The animals had their respective quarantine period and were treated with maximum precaution to minimize possible contaminations during inoculations and handling.
Twenty animals were used in this assay and the treatments were all conducted by intraperitoneal (i.p.) route with a volume of 100 μl, according to the following regimens: • i) PBS+MPTP+PBS regimen: 10 animals were initially treated with a daily dose for 2 days of PBS, from the second day onwards the animals were inoculated with 1 daily dose of MPTP at 30 mg/Kg for 5 days, at intervals of 2 hours by i.p. route. For the next 21 days they were administered 3 weekly doses of PBS. • ii) NST0037+MPTP+NST0037 regimen: 10 animals were initially treated with a daily dose for 2 days of NST0037 at 50 mg/kg, from the second day onwards the animals were inoculated with 1 daily dose of MPTP at 30 mg/Kg for 5 days, at intervals of 2 hours by i.p. route. For the next 21 days they were administered 3 weekly doses of NST0037 at 50 mg/kg.
Seven days before starting the treatments and at 7, 14 and 21 days post-inoculation of MPTP, the animals were subjected to a locomotor resistance test referred to as the Rotarod test for 2 minutes, recording the time the animals resisted walking over a cylinder which increased its speed from 4 to 40 r.p.m.
Once the treatment time of 21 days ended, the animals were sacrificed and the brains were dissected. The brain samples were processed and included in paraffin. For the analysis of the presence of dopaminergic neurons in the substantia nigra, the immunohistochemistry against the tyrosine-hydroxylase (TH) protein was performed in 5 μm thick sagittal sections.
Once the treatment time of 21 days ended, the animals were sacrificed and the brains were dissected. The brain samples were processed and included in paraffin. […]

[2] = system: FVB/NHan mice inoculated with kainate (KA); test: Mortality caused by kainate in mice (Kaplan-Meier); format: in vivo; details: 50 mg/kg i.p.
Description: All the animals included for the experimental process were 12-week old males of the FVB/NHan strain. The experiments were conducted strictly following the Guidance on the Operation of Animals (Scientific Procedures, Act. 1986). The animals had their respective quarantine period and were treated with maximum precaution to minimize possible contaminations for inoculations and handling. […]
The deaths were recorded during the entire time the assay lasted, and the results are shown in FIG. 8 by means of Kaplan-Meier survival curves. […]

CCC(CC)C(=O)O[C@H]1C[C@@H](C)C=C2C=C[C@H](C)[C@H](CC[C@@H]3C[C@@H](O)CC(=O)O3)[C@H]21 [NST0037, (1S,2S,6R,8S,8aR)-1,2,6,7,8,8a-hexahydro-3,7-dimethyl-8-[2-[(2R,4R)-tetrahydro-4-hydroxy-6-oxo-2H-pyran-2-yl]ethyl]-1-naphthalenyl-2-ethyl-butyrate]
HMGR inhibition potency compared with atorvastatin (HMGR enzyme): surprisingly close to that of more potent statin, atorvastatin
histopathology: intestine (adult zebrafish; 2000 mg/Kg): Atrophy signs in the intestinal villi
histopathology: liver (adult zebrafish; 2000 mg/Kg): discrete inflammation areas
weight of the animals (adult zebrafish; 2000 mg/kg, 24 hours exposure in water): did not modify the weight
motor resistance (Rotarod test) ([1]; NST0037+MPTP+NST0037, 50 mg/kg i.p., MPTP 30 mg/Kg daily 5 days, up to 21 days): prevents the motor deterioration of the animals
dopaminergic neurons (tyrosine-hydroxylase) in substantia nigra ([1]; NST0037+MPTP+NST0037, 21 days): larger number of TH-positive cells
lipid peroxidation (HNE) in neurons of substantia nigra ([1]; NST0037+MPTP+NST0037, 21 days): modest number of isolated neurons with HNE-positive labeling
mortality caused by KA (survival) ([2]; NST0037+KA+NST0037 regimen): protected against death
survival of the animals vs PBS+KA+PBS ([2]; PBS+KA+NST0037 regimen): increases
